We go through 17 compounds from patent US20240158357A1, “NOVEL QUINAZOLINONES THAT INHIBIT THE FORMATION OF TAU OLIGOMERS AND THEIR METHOD OF USE” (OLIGOMERIX INC., priority 2019, published 2024).

In series [1] the target is T1, recombinant human tau 4R2N (Homo sapiens (Human), UniProt P10636). Briefly: AlphaLisa Assay (ALA), primary screen for inhibition of tau oligomer formation. The class given is biochemical. The conditions noted are these: tau target 300 nM, 4 hours room temperature, compound 0.098 uM-50 uM. The source says:
(§1) Bacterial recombinant human tau 4R2N (the largest isoform of tau in the central nervous system, 441 amino acids in length, Seq. ID 1) constructs with either 6X-His or StrepII N-terminal epitope tags were purified from bacterial lysate using denaturing conditions to prepare tau in its monomeric form.
ALA Assay: AlphaLisa Assay (ALA) was used as a primary screen for identifying compounds that inhibit tau oligomer formation. It is a bead based assay that only gives signal when the beads are in close proximity to each other. When the tau monomer (target) is incubated it forms higher order aggregates (dimer, trimer, tetramer, etc) so that when the donor and acceptor beads bind to the epitope tags of tau they are in close proximity and generate signal.
Tau target (equal mixture of each construct at 300 nM) was prepared in buffer (Tris-HCl pH 7.4) and was incubated in 96-well plates at room temperature for 4 hours with vehicle control (DMSO) and a dose range of a compound of the disclosure (0.098 uM-50 uM). AlphaLisa acceptor heads & donor beads with ligands to the epitope tags (Perkin Elmer) were diluted (final 20 ug/mL per bead) in bead buffer (25 mM HEPES pH 7.4, 100 mM NaCl, 0.1% Tween-20), added to the wells and incubated 1 hour at room temperature. The positive control (non-incubated target) & blank (no tau) were prepared and mixed with beads in bead buffer and the plate was read immediately using the EnVision plate reader (Perkin Elmer).
For orientation: Bead proximity is the source of the signal in Alpha formats.

For series [2], the target named is T1, recombinant human tau 4R2N. Briefly: Confirmatory Assay (CONFA), SDS-PAGE quantification of tau monomer and oligomers. The class given is biochemical. The conditions noted are these: tau target 300 nM, 3 hours room temperature, compound 0.098 uM-50 uM. The procedure:
as §1
CONFA Assay: Confirmatory Assay (CONFA) used as a secondary screen for confirming the mechanism of action of compounds identified as hits using the ALA assay. The assay is performed using a similar procedure as ALA except that it utilizes SDS-PAGE for visualization and quantification of tau monomer and aggregated species (dimer, trimer, tetramer, pentamer, etc.). Only a single construct of tau without epitope tags is necessary, but the assay can use the same target prepared for the ALA assay also.
For the CONFA assay, Tau target (300 nM) was prepared in buffer (Tris-HCl pH 7.4) and was incubated at room temperature for 3 hours with vehicle control (DMSO) and a dose range of a compound of the disclosure (0.098 uM-50 uM). Samples were mixed with an equal volume of 2×SDS sample buffer (4% SDS, 20% glycerol, 0.004% bromphenol blue, 125 mM Tris HCl, pH 7.0) to resolve tau monomer and disulfide-linked oligomers on 4-20% gradient polyacrylamide gels (Biorad) along with positive control (non-oligomerized tau target). The gels were stained with Oriole Fluorescent Gel Stain (BioRad) and imaged using the FluorChem R system (Protein Simple). AlphaView software (Protein Simple) was used for quantification of tau monomer and oligomers.

For series [3], the system named is insoluble tau aggregates in the brains of htau mice. Briefly: htau mouse study, insoluble tau in cortex (mAb DA31). The class given is in vivo. How it is done:
(§2) Four groups of htau mice (n=25 per group) were treated from 2.5 to 6.5 months of age with 0, 10, 40 and 100 mg/kg of compound TO-0582 milled into feed. The study was performed independently and blinded. The primary endpoint of the study was reduction of insoluble tau aggregates in the brains of the mice with statistical significance. […] Methods for biochemical analyses of tau used in this study have been previously described (Acker C M et al. Sensitive quantitative assays for tau and phospho-tau in transgenic mouse models. Neurobiol Aging. 2013. 34:338). The results in FIG. 1 show in vivo efficacy of the compound in reducing tau pathology. Levels of insoluble tau in the cortices of htau mice treated with compound TO-0582 (example 21) were determined using the pan-tau monoclonal antibody (mAb) DA31. These values were normalized to total tau in the lysates of the cortex of each mouse. Error bars indicate standard error of the mean. The P values of comparisons of the groups treated with 10, 40 or 100 mg/kg TO-0582 to the control group (white bar, 0 mg/kg) are 0.0503 (horizontal hatch bar, 10 mg/kg), 0.0154 (diagonal hatch bar, 40 mg/kg) and 0.0488 (vertical hatch bar, 100 mg/kg). * indicates P value <0.05.

The next series deals with htau mice. Nature of the series: htau mouse study, tolerability. The class given is in vivo. The conditions noted are these: all doses (10, 40, 100 mg/kg in feed). The procedure:
as §2

The structures appear in SMILES notation. “Also recorded” adds a separate entry of the source. Counter-ions that a name gives are not always drawn.

T1 sequence (P10636 other isoform, or with tags, fused parts or gaps): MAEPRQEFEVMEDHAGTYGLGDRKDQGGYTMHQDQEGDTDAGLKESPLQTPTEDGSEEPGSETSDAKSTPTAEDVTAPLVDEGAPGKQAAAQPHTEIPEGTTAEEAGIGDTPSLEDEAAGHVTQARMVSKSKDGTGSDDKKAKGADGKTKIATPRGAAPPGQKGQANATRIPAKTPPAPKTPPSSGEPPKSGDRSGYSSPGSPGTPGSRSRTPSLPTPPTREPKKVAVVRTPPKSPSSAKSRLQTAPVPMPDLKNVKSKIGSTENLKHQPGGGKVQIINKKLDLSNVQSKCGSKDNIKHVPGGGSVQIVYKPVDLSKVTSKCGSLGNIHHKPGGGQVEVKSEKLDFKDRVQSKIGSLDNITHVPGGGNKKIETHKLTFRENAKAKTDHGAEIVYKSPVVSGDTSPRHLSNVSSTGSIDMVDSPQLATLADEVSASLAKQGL

In general, IC50 refers to the concentration that inhibits the measured activity by half. `O=c1c2ccccc2nc(-c2cccnc2)n1-c1cccc(OCc2ccccc2)c1` [Ex. 4, 3-(3-(Benzyloxy)phenyl)-2-(pyridin-3-yl)quinazolin-4(3H)-one hydrochloride]: the figures for the IC50 in series [1] and in series [2] were 7.8 µM and 3.19 µM, respectively.

With `CCc1ccc(-n2c(-c3cccnc3)nc3ccccc3c2=O)cc1F` [Ex. 17, 3-(3-Fluoro-4-ethylphenyl)-2-(pyridine-3-yl)quinazolin-4(3H)-one], the IC50 in series [1] came out at 24.1 µM.

As for `COc1ccc(-n2c(-c3ccc(NC(C)=O)cc3)nc3ccsc3c2=O)cn1` [Ex. 13, N-(4-(3,4-Dihydro-3-(6-methoxypyridin-3-yl)-4-oxothieno[3,2-d]pyrimidin-2-yl)phenyl)acetamide], in series [1], the IC50 amounted to 13.6 µM.

`O=c1c2ccccc2nc(-c2cccnc2)n1-c1cccc(O)c1` [Ex. 21, 3-(3-Hydroxyphenyl)-2-(pyridin-3-yl)quinazolin-4(3H)-one hydrochloride]: the figures for the concentration for half-maximal inhibition (IC50) in series [1] and in series [2] were 5.14 µM and 5.67 µM, respectively. Besides, the “reduction of insoluble tau, statistical significance” value in series [3] (40 mg/kg and 100 mg/kg doses, male htau mice) was “achieved with statistical significance”. For the same compound, the “reduction of insoluble tau aggregates in the brains” value in series [3] (htau mice, 10, 40 and 100 mg/kg milled into feed, 2.5 to 6.5 months of age, listed as TO-0582, hydrochloride) is recorded as “reduced insoluble tau at all doses; also recorded: achieved with statistical significance”. In addition, the “tolerability over the course of the study” value in the series with htau mice was “well tolerated”. Also, the “toxic effects on weight, behavior or morbidity” value in the series with htau mice was “did not cause toxic effects”.

For the compound `CN1CC(C(=O)Nc2ccc(-c3nc4ccccc4c(=O)n3-c3cccnc3)cc2)C1` [Ex. 7, N-(4-(3,4-Dihydro-4-oxo-3-(pyridin-3-yl)quinazolin-2-yl)phenyl)-1-methylazetidine-3-carboxamide dihydrochloride], the IC50 was 9.6 µM in series [1] and 12.1 µM in series [2].

In the case of `O=c1[nH]c(-c2cccnc2)nc2cnccc12` [Ex. 6, 2-(Pyridin-3-yl)pyrido[3,4-d]pyrimidin-4(3H)-one dihydrochloride], the IC50 in series [2] was determined as 59.2 µM.

With `CCc1ccc(-n2c(-c3ccc(NC(C)=O)cc3)nc3ccsc3c2=O)cc1O` [Ex. 16, N-(4-(3-(4-ethyl-3-hydroxyphenyl)-4-oxo-3,4-dihydrothieno[3,2-d]pyrimidin-2-yl)phenyl)acetamide], the 50% inhibitory concentration (IC50) in series [1] stood at 4.53 µM; in series [2], 1.7 µM.

Turning to `CN1CC(C(=O)Nc2ccc(-c3nc4ccsc4c(=O)[nH]3)cc2)C1` [Ex. 9, N-(4-(3,4-Dihydro-4-oxothieno[3,2-d]pyrimidin-2-yl)phenyl)-1-methyl azetidine-3-carboxamide hydrochloride], the figures for the IC50 in series [1] and in series [2] were 6.89 µM and 62.4 µM, respectively.

As to `O=c1c2ccccc2nc(-c2cccnc2)n1CCCCO` [Ex. 3, 3-(4-Hydroxybutyl)-2-(pyridin-3-yl)quinazolin-4(3H)-one hydrochloride], the half-maximal inhibitory concentration (IC50) in series [1] is 9.93 µM; in series [2] it was 8.94 µM.

As to `O=c1c2sccc2nc(-c2cccnc2)n1-c1cccnc1` [Ex. 10, 2,3-Di(pyridin-3-yl)thieno[3,2-d]pyrimidin-4(3H)-one], the IC50 in series [1] is 26.3 µM.

Regarding `CCc1ccc2cc(-n3c(-c4cccnc4)nc4ccccc4c3=O)ccc2c1` [Ex. 19, 3-(2-Ethylnaphthalen-6-yl)-2-(pyridine-3-yl)quinazolin-4(3H)-one], the IC50 in series [1] stood at 8.05 µM.

As for `Cc1ccc(-n2c(-c3cccnc3)nc3ccsc3c2=O)cc1O` [Ex. 11, 3-(3-Hydroxy-4-methylphenyl)-2-(pyridin-3-yl)thieno[3,2-d]pyrimidin-4(3H)-one], the IC50 was found to be 17.1 µM in series [1] and 57 µM in series [2].

Turning to `O=c1c2ccccc2nc(-c2cccnc2)n1-c1ccc(Cl)c(O)c1` [Ex. 2, 3-(4-Chloro-3-hydroxyphenyl)-2-(pyridin-3-yl)quinazolin-4(3H)-one hydrochloride], the results for the IC50 in series [1] and in series [2] were 5.78 µM and 31.9 µM, respectively.

Take `O=c1[nH]c(-c2cccnc2)nc2ccsc12` [Ex. 15, 2-(pyridin-3-yl)thieno[3,2-d]pyrimidin-4(3H)-one]: the figures for the IC50 in series [1] and in series [2] were 3.72 µM and 7.6 µM, respectively.

As to `Cc1ccc(-n2c(-c3cccnc3)nc3ccccc3c2=O)cc1O` [Ex. 20, 3-(4-Methyl-3-hydroxyphenyl)-2-(pyridin-3-yl)quinazolin-4(3H)-one hydrochloride], the 50% inhibitory concentration (IC50) was 1.9 µM in series [1] and 4.18 µM in series [2].

Consider `CCc1ccc(-n2c(-c3cccnc3)nc3ccccc3c2=O)cc1Br` [Ex. 18, 3-(3-Bromo-4-ethylphenyl)-2-(pyridine-3-yl)quinazolin-4(3H)-one], for which the IC50 in series [1] worked out at 4.5 µM.

For `COc1ccc(-n2c(-c3cccnc3)nc3ccsc3c2=O)cn1` [Ex. 14, 3-(6-Methoxypyridin-3-yl)-2-(pyridin-3-yl)thieno[3,2-d]pyrimidin-4(3H)-one dihydrochloride], the values for the IC50 in series [1] and in series [2] were 6.25 µM and 22.3 µM, respectively.
